Experimental data reported in ChEMBL document CHEMBL1126402, “The design and biological evaluation of a series of 3-hydroxy-3-methylglutaryl coenzyme a (HMG-CoA) reductase inhibitors related to dihydromevinolin” (Bioorg Med Chem Lett, 1992).
Active and inactive are the calls of the source. The calls are words filed in the database; no cut-off is given here.

Columns and labels:
[1] = biological target: T1, 3-hydroxy-3-methylglutaryl-coenzyme A reductase (Rattus norvegicus, UniProt P51639); assay: Inhibition of microsomal rat liver HMG-CoA reductase
T1 sequence (P51639 whole entry): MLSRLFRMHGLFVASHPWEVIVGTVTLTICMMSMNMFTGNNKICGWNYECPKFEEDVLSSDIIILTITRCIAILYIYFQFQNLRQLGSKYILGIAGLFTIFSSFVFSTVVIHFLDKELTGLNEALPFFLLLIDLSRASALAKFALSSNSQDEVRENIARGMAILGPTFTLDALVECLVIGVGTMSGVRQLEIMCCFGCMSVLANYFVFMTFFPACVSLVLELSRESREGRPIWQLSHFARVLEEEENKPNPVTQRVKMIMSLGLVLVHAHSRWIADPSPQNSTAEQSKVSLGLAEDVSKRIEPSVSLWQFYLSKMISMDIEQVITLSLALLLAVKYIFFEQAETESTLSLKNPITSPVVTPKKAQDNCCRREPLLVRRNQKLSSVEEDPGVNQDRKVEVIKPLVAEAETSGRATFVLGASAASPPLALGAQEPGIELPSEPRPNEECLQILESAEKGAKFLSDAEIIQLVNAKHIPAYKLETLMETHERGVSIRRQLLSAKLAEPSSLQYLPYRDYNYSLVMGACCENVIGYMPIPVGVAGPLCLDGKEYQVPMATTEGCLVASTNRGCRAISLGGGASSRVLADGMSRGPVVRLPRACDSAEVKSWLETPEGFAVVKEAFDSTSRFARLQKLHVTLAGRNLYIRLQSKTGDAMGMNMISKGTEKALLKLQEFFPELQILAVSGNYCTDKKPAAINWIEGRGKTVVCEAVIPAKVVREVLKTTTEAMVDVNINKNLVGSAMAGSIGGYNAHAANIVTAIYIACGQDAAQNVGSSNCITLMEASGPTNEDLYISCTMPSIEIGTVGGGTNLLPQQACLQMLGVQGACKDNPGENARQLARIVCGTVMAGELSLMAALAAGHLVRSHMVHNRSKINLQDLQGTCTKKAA

[2] = Selectivity in vivo against rat assay; A - greater inhibition in liver than in spleen, testes, kidney; assay type: functional, organism-based
[3] = Selectivity in vivo against rat assay; NS - no significant difference between organs; assay type: functional, organism-based

| IC50 [1] [nM] | Compound | Selectivity [2] | Selectivity [3] |
| --- | --- | --- | --- |
| 11 | CC[C@H](C)C(=O)O[C@H]1C[C@@H](C)C=C2C=C[C@H](C)[C@H](CC[C@@H]3C[C@@H](O)CC(=O)O3)[C@H]21 [LOVASTATIN] | A | – |
| 1500 | CCC(C)C(=O)O[C@H]1C[C@@H](C)C[C@@H]2C=CC[C@H](CC[C@@H]3C[C@@H](O)CC(=O)O3)[C@@H]12 (stereo partly specified) | – | – |
| 1500 | C/C=C\[C@@H]1C[C@H](OC(C)=O)[C@@H]2[C@@H](CC[C@@H]3C[C@@H](O)CC(=O)O3)[C@@H](C)C=C[C@H]2C1 | – | – |
| 15 | CC/C=C/[C@@H]1C[C@H](OC(=O)C(C)(C)CC)[C@@H]2[C@@H](CC[C@@H]3C[C@@H](O)CC(=O)O3)[C@@H](C)C=C[C@H]2C1 | – | – |
| 100 | C/C=C/[C@@H]1C[C@H](OC(=O)C(C)(C)CC)[C@@H]2[C@@H](/C=C/[C@@H]3C[C@@H](O)CC(=O)O3)[C@@H](C)C=C[C@H]2C1 | – | – |
| 8 | CCC/C(C)=C/[C@@H]1C[C@H](OC(=O)C(C)(C)CC)[C@@H]2[C@@H](CC[C@@H]3C[C@@H](O)CC(=O)O3)[C@@H](C)C=C[C@H]2C1 | – | inactive |
| 80 | CCC(C)C(=O)O[C@H]1C[C@@H](C)C[C@@H]2C=C[C@H](C)[C@H](CCC(=O)C[C@@H](O)CC(=O)OC)[C@@H]12 (stereo partly specified) | – | – |
| 20 | CCC/C(C)=C/[C@@H]1C[C@H](OC(=O)[C@@H](C)CC)[C@@H]2[C@@H](CC[C@@H]3C[C@@H](O)CC(=O)O3)[C@@H](C)C=C[C@H]2C1 | – | inactive |
